Results on 7 molecules are retold here after PubChem BioAssay (NCI).

Among the test systems are HOP-92 NSCLC; SK-MEL-2 melanoma; HL-60(TB) leukemia; UO-31 renal; U251 CNS; SK-OV-3 ovarian; OVCAR-8 ovarian; HCT-116 colon; MDA-N; CCRF-CEM leukemia; HOP-62 NSCLC; MDA-MB-231 breast; KM12 colon; SF-268 CNS; OVCAR-3 ovarian; CAKI-1 renal.
Holding throughout (test): DTP human tumour cell line panel, 48 h

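48-hour exposure; five concentrations; linearly interpolated endpoints. At the TGI there is no net growth.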

The TGI is the concentration giving total growth inhibition. Low values mean more potent growth arrest, high ones less potent growth arrest. In the case of `O=C(/C=C/c1ccc(O)c(O)c1)Oc1ccccc1`, the TGI in the experiment on HOP-92 NSCLC was 47.6 µM; in the experiment with SK-MEL-2 melanoma, 44 µM; in the experiment on HL-60(TB) leukemia, 20.1 µM; in the experiment on UO-31 renal, 30.5 µM; with U251 CNS, 48.3 µM; in the experiment on SK-OV-3 ovarian it was above 100 µM. Also, the TGI is 38.2 µM in the experiment on OVCAR-8 ovarian; 34.6 µM in the experiment with HCT-116 colon; above 81 µM in the experiment on MDA-N; 42.8 µM in the experiment with CCRF-CEM leukemia; 49.2 µM with HOP-62 NSCLC; 61.8 µM in the experiment with MDA-MB-231 breast. In addition, the TGI in the experiment on KM12 colon was determined as 40.4 µM; with SF-268 CNS it was 32 µM; in the experiment with OVCAR-3 ovarian, 47.6 µM; with CAKI-1 renal it was 32.5 µM.

Consider `COC(=O)c1ccccc1C1CN=NC12Cc1c(C)c3c(c(C)c1C2=O)CCC3` (configuration not stated), for which the TGI with HOP-92 NSCLC, in the experiment with SK-MEL-2 melanoma, in the experiment on HL-60(TB) leukemia, in the experiment on UO-31 renal, with U251 CNS and in the experiment on SK-OV-3 ovarian was above 100 µM in each case. Moreover, the TGI in the experiment with OVCAR-8 ovarian, in the experiment with HCT-116 colon, with MDA-N, in the experiment with CCRF-CEM leukemia, in the experiment with HOP-62 NSCLC and in the experiment on MDA-MB-231 breast was above 100 µM throughout. The TGI with KM12 colon, in the experiment with SF-268 CNS, in the experiment with OVCAR-3 ovarian and in the experiment on CAKI-1 renal was above 100 µM throughout.

For `CCOc1ccccc1N=NC1C(=O)N(C(=O)CC(=O)Nc2ccccc2Cl)N=C1C` (configuration not stated), the TGI is 70 µM with HOP-92 NSCLC; above 100 µM in the experiment with SK-MEL-2 melanoma; above 100 µM in the experiment on HL-60(TB) leukemia; above 100 µM in the experiment with UO-31 renal; above 100 µM with U251 CNS; 90.3 µM in the experiment on SK-OV-3 ovarian. Also, the TGI was above 100 µM with OVCAR-8 ovarian; above 100 µM with HCT-116 colon; above 100 µM in the experiment on MDA-N; above 100 µM in the experiment with CCRF-CEM leukemia; 68.8 µM in the experiment with HOP-62 NSCLC; above 100 µM in the experiment on MDA-MB-231 breast. For the same molecule, the TGI in the experiment on KM12 colon, in the experiment on SF-268 CNS, with OVCAR-3 ovarian and in the experiment on CAKI-1 renal was above 100 µM throughout.

With `COc1ccc(-c2c(N)n(-c3cc(OC)cc(OC)c3)c(=O)c3cc([N+](=O)[O-])ccc23)cc1`, the TGI is 34.1 µM in the experiment with HOP-92 NSCLC; above 100 µM with SK-MEL-2 melanoma; above 100 µM in the experiment on HL-60(TB) leukemia; above 100 µM with UO-31 renal; above 100 µM in the experiment on U251 CNS; above 100 µM in the experiment with SK-OV-3 ovarian. In addition, the TGI with OVCAR-8 ovarian, with HCT-116 colon, with MDA-N, with CCRF-CEM leukemia, in the experiment on HOP-62 NSCLC and with MDA-MB-231 breast was above 100 µM throughout. The TGI was above 100 µM in the experiment with KM12 colon, above 100 µM with SF-268 CNS, above 100 µM with OVCAR-3 ovarian and above 31.6 µM in the experiment with CAKI-1 renal.

`CCOC(=O)c1c2ccccc2n2c(=O)n(C)nnc12`: the TGI in the experiment with HOP-92 NSCLC, in the experiment on SK-MEL-2 melanoma, in the experiment with HL-60(TB) leukemia, in the experiment with UO-31 renal, in the experiment with U251 CNS and in the experiment with SK-OV-3 ovarian was above 100 µM each time. Moreover, the TGI with OVCAR-8 ovarian, in the experiment on HCT-116 colon, in the experiment with MDA-N, in the experiment on CCRF-CEM leukemia, in the experiment with HOP-62 NSCLC and in the experiment on MDA-MB-231 breast was above 100 µM in each case. The TGI in the experiment with KM12 colon, with SF-268 CNS, in the experiment with OVCAR-3 ovarian and in the experiment on CAKI-1 renal was above 100 µM throughout.

As for `COC(=O)C1=C(C(=O)OC)C2(/N=C(\Nc3ccccc3)c3ccccc3)N(c3ccc(OC)cc3)CC(c3ccccc3)N2O1` (configuration not stated), the TGI in the experiment on HOP-92 NSCLC, in the experiment on SK-MEL-2 melanoma, in the experiment on HL-60(TB) leukemia, with UO-31 renal, in the experiment on U251 CNS and in the experiment with SK-OV-3 ovarian was above 100 µM in each case. Moreover, the TGI in the experiment with OVCAR-8 ovarian, in the experiment with HCT-116 colon, in the experiment on MDA-N, in the experiment with CCRF-CEM leukemia, in the experiment on HOP-62 NSCLC and with MDA-MB-231 breast was above 100 µM throughout. Also, the TGI with KM12 colon, in the experiment on SF-268 CNS, in the experiment on OVCAR-3 ovarian and in the experiment on CAKI-1 renal was above 100 µM each time.

Regarding `COC(=O)c1c(C)cccc1C1CN=NC12Cc1c(C)cccc1C2=O` (configuration not stated), the TGI in the experiment with HOP-92 NSCLC, in the experiment on SK-MEL-2 melanoma, with HL-60(TB) leukemia, in the experiment on UO-31 renal, with U251 CNS and in the experiment with SK-OV-3 ovarian was above 100 µM throughout. The TGI in the experiment on OVCAR-8 ovarian, in the experiment with HCT-116 colon, in the experiment with MDA-N, in the experiment with CCRF-CEM leukemia, with HOP-62 NSCLC and with MDA-MB-231 breast was above 100 µM throughout. The TGI in the experiment with KM12 colon, in the experiment on SF-268 CNS, with OVCAR-3 ovarian and in the experiment with CAKI-1 renal was above 100 µM in each case.
